In ChEMBL document CHEMBL5550087, “Development of tenofovir monobenzyl ester phosphonoamidate prodrugs with improved anti-hepatitis B virus activity and intrahepatic tenofovir enrichment” (Bioorg Med Chem, 2024):
pEC50, pIC50: −log10 of the molar value. Blank lines part the entries; values can stand above or below the molecule they belong to.

Assays:
[1] = Ratio of drug level in ICR mouse liver to plasma at 50 mg/kg, ig measured after 3 hrs by LC-MS/MS analysis; assay type: ADME, organism-based; conditions: liver and plasma, po
[2] = Plasma concentration in ICR mouse at 50 mg/kg, ig measured after 3 hrs by LC-MS/MS analysis; assay type: ADME, organism-based; conditions: po
[3] = Drug uptake in ICR mouse liver at 50 mg/kg, ig measured after 3 hrs by LC-MS/MS analysis; assay type: ADME, organism-based; conditions: po, read-out: Drug uptake
[4] = Drug metabolism in ICR mouse plasma assessed as tenofovir metabolite level at 50 mg/kg, ig measured after 3 hrs by LC-MS/MS analysis; assay type: ADME, organism-based; conditions: in vivo, po
[5] = Drug metabolism in ICR mouse plasma assessed as ratio of tenofovir level to parent compound level at 50 mg/kg, ig measured after 3 hrs by LC-MS/MS analysis; assay type: ADME, organism-based; conditions: in vivo, po
[6] = Drug metabolism in ICR mouse liver assessed as tenofovir metabolite level at 50 mg/kg, ig measured after 3 hrs by LC-MS/MS analysis; assay type: ADME, organism-based; conditions: in vivo, po
[7] = Drug metabolism in ICR mouse assessed as ratio of tenofovir metabolite level in liver to plasma at 50 mg/kg, ig measured after 3 hrs by LC-MS/MS analysis; assay type: ADME, organism-based; conditions: other tissue, po
[8] = Drug metabolism in ICR mouse liver assessed as ratio of tenofovir level to parent compound level at 50 mg/kg, ig measured after 3 hrs by LC-MS/MS analysis; assay type: ADME, organism-based; conditions: in vivo, po
Hepatitis B virus = experiment: Antiviral activity against Hepatitis B virus infected in human HepG2.2.15 cells assessed as inhibition of viral DNA replication treated from day 2 to day 8 by real time fluorescence qPCR analysis; assay type: functional, organism-based
[9] = Cytotoxicity against human HepG2.2.15 cells assessed as reduction in cell viability treated from day 2 to day 8 by CellTiter-Blue reagent based fluorescence analysis; assay type: toxicity, HepG2 2.2.15; conditions: time 6 day
[10] = Drug metabolism in Sprague-Dawley rat kidney assessed as Tmax of tenofovir metabolite at 25 mg/kg, ig measured for 12 hrs by LC-MS/MS analysis; assay type: ADME, organism-based; conditions: in vivo, po
[11] = Drug metabolism in Sprague-Dawley rat assessed as terminal elimination half life of tenofovir metabolite at 5 mg/kg, iv measured for 24 hrs by LC-MS/MS analysis; assay type: ADME, organism-based; conditions: in vivo
[12] = Drug metabolism in Sprague-Dawley rat liver assessed as terminal elimination half life of tenofovir metabolite at 25 mg/kg, ig measured for 12 hrs by LC-MS/MS analysis; assay type: ADME, organism-based; conditions: in vivo, po
[13] = Mutagenicity in Salmonella typhimurium TA98 assessed as revertant colonies at 1.5 to 1000 ug/well incubated for 66.5 hrs in the dark in presence of S9 fraction by mini-Ames test; assay type: toxicity, subcellular; conditions: salmonella enterica subsp. enterica serovar typhimurium, s9, 66.5 h, dose 1.5-1000 µg
[14] = Drug metabolism in Sprague-Dawley rat plasma assessed as terminal elimination half life of tenofovir metabolite at 25 mg/kg, ig measured for 12 hrs by LC-MS/MS analysis; assay type: ADME, organism-based; conditions: in vivo, po
[15] = Mutagenicity in Salmonella typhimurium TA98 assessed as revertant colonies at 1.5 to 1000 ug/well incubated for 66.5 hrs in the dark by mini-Ames test; assay type: toxicity; conditions: salmonella enterica subsp. enterica serovar typhimurium, dose 1.5-1000 µg
[16] = Drug metabolism in human liver S9 fraction assessed as tenofovir metabolite formation at 1 uM incubated for upto 60 mins by LC-MS/MS analysis; assay type: ADME, subcellular; conditions: s9, 1 h
[17] = Drug metabolism in Sprague-Dawley rat assessed as MRT(0 to t) of tenofovir metabolite at 5 mg/kg, iv measured for 24 hrs by LC-MS/MS analysis; assay type: ADME, organism-based; conditions: in vivo
[18] = Stability of the compound in simulated intestinal fluid at 10 uM incubated at 37 degC for upto 1440 mins by LC-MS/MS analysis; assay type: ADME; conditions: simulated gi fluid, 24 h
[19] = Drug metabolism in Sprague-Dawley rat kidney assessed as terminal elimination half life of tenofovir metabolite at 25 mg/kg, ig measured for 12 hrs by LC-MS/MS analysis; assay type: ADME, organism-based; conditions: in vivo, po
[20] = Drug metabolism in Sprague-Dawley rat kidney assessed as Cmax of tenofovir metabolite at 25 mg/kg, ig measured for 12 hrs by LC-MS/MS analysis; assay type: ADME, organism-based; conditions: in vivo, po
[21] = Drug metabolism in Sprague-Dawley rat assessed as bioavailability of tenofovir metabolite at 25 mg/kg, ig measured for 24 hrs by LCMS/MS analysis; assay type: ADME, organism-based; conditions: in vivo, po
[22] = molecular target: Voltage-gated inwardly rectifying potassium channel KCNH2 (Homo sapiens, UniProt Q12809); experiment: Inhibition of hERG expressed in CHO cells assessed as inhibition of channel current measured at holding potential of -80 mV by whole cell patch clamp analysis; assay type: toxicity, cell-based
Voltage-gated inwardly rectifying potassium channel KCNH2, sequence (Q12809 whole entry): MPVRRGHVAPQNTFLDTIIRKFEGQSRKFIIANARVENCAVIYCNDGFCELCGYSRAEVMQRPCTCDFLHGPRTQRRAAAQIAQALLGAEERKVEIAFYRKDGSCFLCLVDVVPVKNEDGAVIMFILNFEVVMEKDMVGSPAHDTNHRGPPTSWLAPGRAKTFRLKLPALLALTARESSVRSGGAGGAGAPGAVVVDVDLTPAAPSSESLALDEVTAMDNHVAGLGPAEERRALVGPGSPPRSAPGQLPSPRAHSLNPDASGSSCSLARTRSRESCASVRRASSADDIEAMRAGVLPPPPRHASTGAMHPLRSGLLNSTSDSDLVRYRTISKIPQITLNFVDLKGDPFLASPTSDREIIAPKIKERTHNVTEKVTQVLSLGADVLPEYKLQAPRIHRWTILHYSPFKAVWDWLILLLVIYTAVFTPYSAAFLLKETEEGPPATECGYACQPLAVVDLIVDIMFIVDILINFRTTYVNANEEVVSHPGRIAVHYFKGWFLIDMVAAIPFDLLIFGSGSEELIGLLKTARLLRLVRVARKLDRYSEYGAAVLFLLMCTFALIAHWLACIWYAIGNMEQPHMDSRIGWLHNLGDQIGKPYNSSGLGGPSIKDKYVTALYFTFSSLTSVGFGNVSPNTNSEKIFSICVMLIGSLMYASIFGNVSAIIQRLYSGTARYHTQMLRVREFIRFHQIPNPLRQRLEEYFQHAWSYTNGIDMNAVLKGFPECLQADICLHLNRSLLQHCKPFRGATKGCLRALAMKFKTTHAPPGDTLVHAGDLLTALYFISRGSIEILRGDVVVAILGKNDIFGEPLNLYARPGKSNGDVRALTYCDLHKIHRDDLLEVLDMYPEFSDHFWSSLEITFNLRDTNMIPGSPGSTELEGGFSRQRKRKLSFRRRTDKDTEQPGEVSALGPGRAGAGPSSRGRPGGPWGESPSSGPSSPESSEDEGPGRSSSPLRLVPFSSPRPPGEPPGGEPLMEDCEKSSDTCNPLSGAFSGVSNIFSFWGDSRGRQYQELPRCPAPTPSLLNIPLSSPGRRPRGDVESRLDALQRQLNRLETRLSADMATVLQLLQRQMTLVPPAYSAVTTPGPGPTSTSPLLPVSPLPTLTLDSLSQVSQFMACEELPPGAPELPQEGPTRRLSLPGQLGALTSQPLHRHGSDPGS

[23] = Mutagenicity in Salmonella typhimurium TA100 assessed as revertant colonies at 1.5 to 1000 ug/well incubated for 66.5 hrs in the dark by mini-Ames test; assay type: toxicity; conditions: salmonella enterica subsp. enterica serovar typhimurium, dose 1.5-1000 µg
[24] = Drug metabolism in Sprague-Dawley rat liver assessed as Cmax of tenofovir metabolite at 25 mg/kg, ig measured for 12 hrs by LC-MS/MS analysis; assay type: ADME, organism-based; conditions: in vivo, po
[25] = Drug metabolism in Sprague-Dawley rat assessed as Tmax of tenofovir metabolite at 25 mg/kg, ig measured for 24 hrs by LC-MS/MS analysis; assay type: ADME, organism-based; conditions: in vivo, po
[26] = Drug metabolism in Sprague-Dawley rat assessed as volume of distribution of tenofovir metabolite at 5 mg/kg, iv measured for 24 hrs by LC-MS/MS analysis; assay type: ADME, organism-based; conditions: in vivo
[27] = Drug metabolism in Sprague-Dawley rat plasma assessed as Cmax of tenofovir metabolite at 25 mg/kg, ig measured for 12 hrs by LC-MS/MS analysis; assay type: ADME, organism-based; conditions: in vivo, po
[28] = Drug metabolism in Sprague-Dawley rat assessed as clearance of tenofovir metabolite at 5 mg/kg, iv measured for 24 hrs by LC-MS/MS analysis; assay type: ADME, organism-based; conditions: in vivo
[29] = Drug metabolism in Sprague-Dawley rat assessed as Cmax of tenofovir metabolite at 25 mg/kg, ig measured for 24 hrs by LC-MS/MS analysis; assay type: ADME, organism-based; conditions: in vivo, po
[30] = Drug metabolism in Sprague-Dawley rat liver assessed as Tmax of tenofovir metabolite at 25 mg/kg, ig measured for 12 hrs by LC-MS/MS analysis; assay type: ADME, organism-based; conditions: in vivo, po
[31] = Mutagenicity in Salmonella typhimurium TA100 assessed as revertant colonies at 1.5 to 1000 ug/well incubated for 66.5 hrs in the dark in presence of S9 fraction by mini-Ames test; assay type: toxicity, subcellular; conditions: salmonella enterica subsp. enterica serovar typhimurium, s9, 66.5 h, dose 1.5-1000 µg
[32] = Stability of the compound in simulated gastric fluid at 10 uM incubated at 37 degC for upto 1440 mins by LC-MS/MS analysis; assay type: ADME; conditions: simulated gi fluid, 24 h
[33] = Drug metabolism in Sprague-Dawley rat assessed as terminal elimination half life of tenofovir metabolite at 25 mg/kg, ig measured for 24 hrs by LC-MS/MS analysis; assay type: ADME, organism-based; conditions: in vivo, po
[34] = Stability of the compound in human plasma at 2 uM incubated for upto 120 mins by LC-MS/MS analysis; assay type: ADME, cell-free; conditions: 2 h
[35] = Drug metabolism in Sprague-Dawley rat plasma assessed as Tmax of tenofovir metabolite at 25 mg/kg, ig measured for 12 hrs by LC-MS/MS analysis; assay type: ADME, organism-based; conditions: in vivo, po

Compound: CC(C)OC(=O)[C@H](C)NP(=O)(CO[C@H](C)Cn1cnc2c(N)ncnc21)OCc1ccccc1 (some centres not stated)
Kp at 3 h [1]: 3.61
concentration at 3 h [2]: 104 nM
concentration at 3 h [3]: 375 nM
Drug metabolism [4]: 0.075 nmol/mL
Ratio [5]: 0.72
Drug metabolism [6]: 67.251 nmol/mL
Ratio [7]: 896
Ratio [8]: 166

Compound: CC(C)OC(=O)[C@H](C)NP(=O)(CO[C@H](C)Cn1cnc2c(N)ncnc21)OCc1ccccc1 (single isomer, unassigned; 3a)
Tmax [10]: 0.25 h
t1/2 [11]: 2.89 h
t1/2 [12]: 6.77 h
Activity [13]: Non-Toxic
t1/2 [14]: 6.58 h
Activity [15]: Non-Toxic
Drug metabolism [16]: Metabolite_Detected
MRT(t) [17]: 0.921 h
Stability [18]: Stable
t1/2 [19]: 322 h
Cmax [20]: 3234 ng/mL
F [21]: 32.7%
pIC50 [22]: < 5.00
Activity [23]: Non-Toxic
Cmax [24]: 10589 ng/mL
Tmax [25]: 0.147 h
Vd [26]: 86.6 L/kg
Cmax [27]: 279 ng/mL
CL [28]: 348 mL/min/kg
Cmax [29]: 98.35 ng/mL
Tmax [30]: 0.25 h
pEC50 (Hepatitis B virus): 8.47
CC50 at 144 h [9]: > 100000 nM
Activity [31]: Non-Toxic
Stability [32]: Stable
t1/2 [33]: 10.7 h
Stability [34]: Stable
Tmax [35]: 0.25 h

Compound: CC(C)OC(=O)[C@H](C)NP(=O)(CO[C@H](C)Cn1cnc2c(N)ncnc21)OCc1ccccc1 (single isomer, unassigned; 3b)
Tmax [10]: 0.25 h
t1/2 [11]: 2 h
t1/2 [12]: 10.7 h
Activity [13]: Non-Toxic
t1/2 [14]: 6.56 h
Activity [15]: Non-Toxic
Drug metabolism [16]: Metabolite_Detected
MRT(t) [17]: 0.489 h
Stability [18]: Stable
t1/2 [19]: 26.2 h
Cmax [20]: 4663 ng/mL
F [21]: 31.5%
pIC50 [22]: < 4.52
Activity [23]: Non-Toxic
Cmax [24]: 10557 ng/mL
Tmax [25]: 0.375 h
Vd [26]: 67.4 L/kg
Cmax [27]: 216 ng/mL
CL [28]: 435 mL/min/kg
Cmax [29]: 143 ng/mL
Tmax [30]: 0.25 h
pEC50 (Hepatitis B virus): 8.22
CC50 at 144 h [9]: > 100000 nM
Activity [31]: Non-Toxic
Stability [32]: Stable
t1/2 [33]: 2.84 h
Stability [34]: Stable
Tmax [35]: 0.25 h

Compound: C[C@H](Cn1cnc2c(N)ncnc21)OCP(=O)(NCC(=O)Oc1ccccc1)OCc1ccccc1 (single isomer, unassigned; 4a)
pEC50 (Hepatitis B virus): 6.67
CC50 at 144 h [9]: > 100000 nM

Compound: Cc1ccccc1COP(=O)(CO[C@H](C)Cn1cnc2c(N)ncnc21)N[C@@H](C)C(=O)OC(C)C (single isomer, unassigned; 5a)
pEC50 (Hepatitis B virus): < 6.00
CC50 at 144 h [9]: > 100000 nM

Compound: Cc1ccccc1COP(=O)(CO[C@H](C)Cn1cnc2c(N)ncnc21)N[C@@H](C)C(=O)OC(C)C (single isomer, unassigned; 5b)
pIC50 [22]: < 5.00
pEC50 (Hepatitis B virus): 6.56
CC50 at 144 h [9]: > 100000 nM

Compound: CC(C)OC(=O)[C@H](C)N[P@](=O)(CO[C@H](C)Cn1cnc2c(N)ncnc21)Oc1ccccc1 [TENOFOVIR ALAFENAMIDE]
Tmax [10]: 0.25 h
t1/2 [11]: 4.59 h
t1/2 [12]: 6.2 h
t1/2 [14]: 4.44 h
Drug metabolism [16]: Metabolite_Detected
MRT(t) [17]: 1.67 h
t1/2 [19]: 5.2 h
Cmax [20]: 16471 ng/mL
F [21]: 27.7%
pIC50 [22]: < 5.00
Cmax [24]: 29820 ng/mL
Tmax [25]: 0.375 h
Vd [26]: 16.1 L/kg
Cmax [27]: 4027 ng/mL
CL [28]: 42.8 mL/min/kg
Cmax [29]: 1370 ng/mL
Tmax [30]: 0.25 h
pEC50 (Hepatitis B virus): 7.75
CC50 at 144 h [9]: > 100000 nM
t1/2 [33]: 5.46 h
Tmax [35]: 0.25 h

Now from value to molecule, other results behind:

pEC50 (Hepatitis B virus): < 6.00
Compound: CC(C)OC(=O)CNP(=O)(CO[C@H](C)Cn1cnc2c(N)ncnc21)OCc1ccccc1 (single isomer, unassigned; 1a)
CC50 at 144 h [9]: > 100000 nM

pEC50 (Hepatitis B virus): 6.54
Compound: CC(C)OC(=O)CNP(=O)(CO[C@H](C)Cn1cnc2c(N)ncnc21)OCc1ccccc1 (single isomer, unassigned; 1b)
CC50 at 144 h [9]: > 100000 nM

pEC50 (Hepatitis B virus): 6.38
Compound: COC(=O)CNP(=O)(CO[C@H](C)Cn1cnc2c(N)ncnc21)OCc1ccccc1 (single isomer, unassigned; 2a)
CC50 at 144 h [9]: > 100000 nM

pEC50 (Hepatitis B virus): < 6.00
Compound: COC(=O)CNP(=O)(CO[C@H](C)Cn1cnc2c(N)ncnc21)OCc1ccccc1 (single isomer, unassigned; 2b)
CC50 at 144 h [9]: > 100000 nM

pEC50 (Hepatitis B virus): 6.07
Compound: C[C@H](Cn1cnc2c(N)ncnc21)OCP(=O)(NCC(=O)Oc1ccccc1)OCc1ccccc1 (single isomer, unassigned; 4b)
CC50 at 144 h [9]: > 100000 nM
